Series [1] addresses T1, Phosphotyrosine-protein phosphatase PTPB (Mycobacterium tuberculosis) (UniProt P96830).
T1 sequence (whole entry): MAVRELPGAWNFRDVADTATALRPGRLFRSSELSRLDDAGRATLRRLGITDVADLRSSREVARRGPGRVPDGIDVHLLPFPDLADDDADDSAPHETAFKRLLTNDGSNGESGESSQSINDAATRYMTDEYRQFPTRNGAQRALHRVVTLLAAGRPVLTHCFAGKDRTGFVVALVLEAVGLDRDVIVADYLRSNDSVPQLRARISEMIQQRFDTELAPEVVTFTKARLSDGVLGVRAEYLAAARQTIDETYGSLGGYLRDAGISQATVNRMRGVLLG
The experiment in a line: Inhibition of Mycobacterium tuberculosis PTPB expressed in Escherichia coli BL21 (DE3) assessed as residual activity at 100 uM using p-nitrophenyl phosphate as substrate relative to control.

Series [2] deals with T2, Phosphotyrosine-protein phosphatase PTPB (Mycobacterium tuberculosis, UniProt P96830).
T2 sequence (P96830 whole entry): T1 sequence (whole entry)
The experiment in a line: Inhibition of Mycobacterium tuberculosis PTPB expressed in Escherichia coli BL21 (DE3) assessed as residual activity.

Series [3] deals with T2, Phosphotyrosine-protein phosphatase PTPB. The experiment in a line: Inhibition of Mycobacterium tuberculosis PTPB expressed in Escherichia coli BL21 (DE3) in presence of DTT by PAINS assay.
Series [4] shares this target. The experiment in a line: Inhibition of Mycobacterium tuberculosis PTPB expressed in Escherichia coli BL21 (DE3) in presence of BSA by PAINS assay.
Series [5] is described as follows: Cytotoxicity against human MRC5 cells assessed as reduction in cell viability at 200 to 0.02 uM measured after 96 hrs. Type of series: toxicity, cell-based.
A short description of series [6]: Cytotoxicity against human WI-38 cells assessed as reduction in cell viability at 200 to 0.02 uM measured after 96 hrs. Format: toxicity, cell-based.

With `O=C1OC(c2ccccc2C(F)(F)F)C(c2ccc3ccccc3n2)=C1O` (stereo in doubt; 1-E1) [listing 1 of 2 here], the Activity in series [1] came to 14.2%.
On to `Cc1onc(C(=O)O)c1-c1cccc(-c2cc(Cl)c(O)c(Cl)c2)c1`, for which, in series [1], the Activity was found to be 10.9%. The IC50 (as a rule, the concentration needed to halve the response being measured) in series [2] was 25.8 µM.
`O=C(O)c1cc(-c2cc(Cl)ccc2Cl)[nH]n1`: the Activity in series [1] stood at 109%.
For `Cc1nc(-c2cccnc2-n2cnc(C(=O)O)c2)no1`, in series [1], the Activity came to 83.2%.
On to `O=C1OC(c2ccccc2C(F)(F)F)C(c2ccc3ccccc3n2)=C1O` (stereo in doubt; 1-E2) [listing 1 of 2 here], for which, in series [1], the Activity is 27.7%.
Consider `O=C(O)C(=O)/C(=C/c1ccccc1C(F)(F)F)c1ccc2ccccc2n1`, for which, in series [1], the Activity was found to be 24.3%. Besides, the IC50 is 48.1 µM in series [2], 47 µM in series [3] and 51.6 µM in series [4]. Also, the IC50 at 96 h in series [5] and in series [6] was > 200 µM throughout.
For the compound `CC(C)c1nnc(NC(=O)C(=O)O)s1`, the Activity in series [1] was determined as 87.2%.
Consider `O=C1OC(c2ccccc2C(F)(F)F)C(c2ccc3ccccc3n2)=C1O` (stereo in doubt; 1-E1) [listing 2 of 2 here], for which, in series [2], the IC50 was determined as 31.1 µM.
For `COc1cccc(C2CC(O)=Nc3c(C(=O)O)cn(-c4cccc(F)c4)c32)c1OC` (stereo not drawn), in series [1], the Activity was 101%.
Regarding `O=C1OC(c2ccccc2C(F)(F)F)C(c2ccc3ccccc3n2)=C1O` (stereo in doubt; 1-E2) [listing 2 of 2 here], in series [2], the IC50 worked out at 72.2 µM.
In the case of `CC1(C)Cc2c(sc(NC(=O)C(=O)O)c2C(=O)O)CO1`, the Activity in series [1] is 104%.
Still for that read-out and setting: the value for `CCOC(=O)c1c(NC(=O)C(=O)O)sc2c1CCCC2` was 69.5%.
